Measurements: US7838685B2 (priority 2005, dated 2010)
“And” between values parts separate entries of the source, which are not always exact repeats. Equal entries are not always repeated.

Tests used:
[1] = Phase transition temperature by differential scanning calorimeter; type: physicochemical; details: for Tc, temperature of the gel to liquid-crystalline phase transition: dispersed in pure water, lipid concentration 1 wt %, DSC 2° C./min, 20 to 80° C.; for Transition temperature: comparison of cationic vesicles, hydrated at 10 mg/mL, extruded through 0.22 μm filter
Method: Each of the obtained cationic amino acid type lipids was dispersed in a simple medium of pure water at 60° C. and used as a measurement sample. 60 μL of a sample solution (lipid concentration: 1 wt %) was encapsulated in a silver pan (sealable type), and the phase transition temperature Tc was measured by a differential scanning calorimeter with the temperature elevation rate of 2° C./min. and the measurement temperature of 20 to 80° C.
(§1) Lys-Asp2C16 (5) was hydrated at a lipid concentration of 10 mg/mL and transmitted through a membrane filter having a final pore diameter of 0.22 μm by the extrusion method. Then, the phase transition temperature and the particle size of the assembly were measured. The particle size of the molecular assembly of Lys-Asp2C16 (5) measured by the dynamic light scattering method was 374±178 nm, and the phase transition temperature thereof was 30° C.

[2] = Particle size of the molecular assembly by dynamic light scattering method; type: physicochemical; details: hydrate extruded through 0.22 μm membrane filter
Method: (§2) 10 mg of the cationic amino acid type lipid (2), (3) or (4) was hydrated in 2 mL of pure water and stirred at room temperature for 6 hours. Then, the resultant hydrate was transmitted with pressure through a membrane filter (final pore diameter: 0.22 μm) (extrusion method). […] After the transmission, the resultant substance was subjected to ultracentrifugation (33,000 rpm, 30 min.) and re-dispersed in pure water to obtain a molecular assembly including a respective cationic amino acid type lipid.
A hydrate dispersion solution of the cationic amino acid type lipid (2) was extruded and observed with an electron microscope. The particle size of the vesicles was approximately the same as the particle size thereof measured by a dynamic light scattering method (181±83 nm).
as §1

[3] = system: simian kidney-derived cells COS-7; assay: Cytotoxicity test, cell survival rate by WST assay, COS-7; type: cell-based; details: COS-7, 10 μg added, 24 hours later
Method: (§3) The cationic amino acid type lipid (2) was evaluated in terms of cytotoxicity by adding different amounts thereof to cells. Specifically, 1×10^4 simian kidney-derived cells COS-7 or human fibroblasts CCD-32SK were planted to dishes and cultured for 24 hours in an incubator. To the cultured cells, a cationic liposome diluted with a medium was added so as to be 0.1, 1, 5, and 10 μg/dish. The cells were cultured for another 24 hours. Then, the cells were washed with a medium, and the cell survival rate was calculated by the WST assay. Based on the results, the cytotoxicity was evaluated (n=2). For comparison, the same test was performed using lipofectamine, which is currently in general use as a gene introduction drag. In the figure, (a) represents the results with COS-7, and (b) represents the results with CCD-32SK. Where 10 μg of lipofectamine was added to COS-7, the cell survival rate 24 hours later was 20%.

[4] = Zeta potential of the molecular assembly including a single type of cationic amino acid type lipid; type: physicochemical; details: molecular assembly 1 mg/mL, extrusion method, 30 mM phosphoric buffer solution pH7.4
Method: The zeta potential of a molecular assembly (1 mg/mL) including a single type of cationic amino acid type lipid (2), (3) or (4) prepared by the extrusion method was measured by a zeta potentiometer (Nano-ZS, Malvern) with 30 mM of a phosphoric buffer solution at pH7.4. The zeta potential of each molecular assembly was +37 mV with the cationic amino acid type lipid (2), +45 mV with the cationic amino acid type lipid (3), and lower at +18 mV with the cationic amino acid type lipid (4). From such zeta potentials, it has been clarified that the surface of a molecular assembly formed of a cationic amino acid type lipid is charged positive under physiological conditions.

[5] = system: human fibroblasts CCD-32SK; assay: Cytotoxicity test, cell survival rate by WST assay, CCD-32SK; type: cell-based; details: 24 h, 10 μg/dish
Method: as §3

[6] = Observation of the molecular assembly with transmission electron microscope; type: physicochemical; details: for Form of molecular assembly observed with electron microscope: hydrate dispersion extruded
Method: as §2
The thickness of the ribbon is considered to be about 5 nm, which is approximately the same as the thickness of the bilayer.

Tc, temperature of the gel to liquid-crystalline phase transition [1] | Particle size (dynamic light scattering method) [2] | Transition temperature [1] | ξ potential [4] | Form of molecular assembly observed with electron microscope ([6]; TEM) | SMILES | further results
41.2 °C | 181±83 nm and 188 ± 82 nm | 41.2 °C | +37 mV |  | CCCCCCCCCCCCCCCCOC(=O)CCC(NC(=O)C(N)CCCCN)C(=O)OCCCCCCCCCCCCCCCC (centres unmarked) [Compound 2] | Cell survival rate [3]: not decreased at all; Cell survival rate [5]: about 80%
43.7 °C | 241±96 nm |  | +45 mV | tubular molecular assembly | CCCCCCCCCCCCCCCCOC(=O)CCC(NC(=O)C(N)Cc1c[nH]cn1)C(=O)OCCCCCCCCCCCCCCCC (centres unmarked) [Compound 3] | Diameter of tubular molecular assembly ([6]; electron microscope): about 20 nm; Wall thickness of the tube ([6]; electron microscope): about 5 nm

More lines, now with the values behind:

SMILES | Tc, temperature of the gel to liquid-crystalline phase transition [1] | Particle size (dynamic light scattering method) [2] | Transition temperature [1] | ξ potential [4] | Form of molecular assembly observed with electron microscope ([6]; TEM) | further results
CCCCCCCCCCCCCCCCOC(=O)CCC(N)C(=O)OCCCCCCCCCCCCCCCC (centres unmarked) [Compound 1] | 49.4 °C |  |  |  |  | 
CCCCCCCCCCCCCCCCOC(=O)CCC(NC(=O)C(N)CCCNC(=N)N)C(=O)OCCCCCCCCCCCCCCCC (centres unmarked) [Compound 4] | 44.8 °C | 1647±733 nm |  | +18 mV | monolayer vesicle structures | 
CCCCCCCCCCCCCCCCOC(=O)CC(NC(=O)C(N)CCCCN)C(=O)OCCCCCCCCCCCCCCCC (centres unmarked) [Compound 5, Lys-Asp2C16, reference compound] |  | 374 ± 178 nm | 30.0 °C |  | ribbon-like molecular assembly | Particle size (dynamic light scattering method) ([2]; listed as Lys-Asp2C16 (5)): 374±178 nm; Transition temperature ([1]; listed as Lys-Asp2C16 (5)): 30 °C; Length of the ribbon ([6]; TEM): ≥ 1 μm; Thickness of the ribbon ([6]; TEM): about 5 nm; Width of the ribbon ([6]; TEM): about 100 nm; Stability of the form of the molecular assembly ([6]; after transmission through 0.22 μm membrane filter): unstable in the form
